Test results from BindingDB's records for PubMed 35114538 (Institute For Pharmaceutical Research Saarland (Hips), 2022).
Where a SMILES comes first, the peptide text is derived from it. Bridges are numbered along the chain shown (N, C = ends). Triazole bridges read from a SMILES are 1,4-linked. [ ]: non-standard residue; d: D form. Ala(indol-2-yl) = N[C@@H](Cc1cc2ccccc2[nH]1)C(=O)O; Dap(N3) = [N-]=[N+]=NC[C@H](N)C(=O)O; Aha = [N-]=[N+]=NCC[C@H](N)C(=O)O; Pra = C#CC[C@H](N)C(=O)O

Target: Carbon storage regulator homolog RsmA (Pseudomonas aeruginosa)
Test: Binding affinity towards Pseudomonas aeruginosa RsmA measured by fluorescence polarization assay

SMILES	IC50 [µM]
CC(=O)N[C@H](C(=O)N[C@H]1Cc2cn(nn2)C[C@@H](C(=O)N[C@@H](Cc2c[nH]c3ccccc23)C(N)=O)NC(=O)[C@H](CC(C)C)NC(=O)[C@H](CCC(=O)O)NC(=O)[C@H](CO)NC1=O)C(C)C (Ac-V[Pra]SEL[Dap(N3)]W-NH2; triazole 2-6)	20
CC(=O)N[C@H](C(=O)N[C@H]1CSSC[C@@H](C(=O)N[C@@H](Cc2cc3ccccc3[nH]2)C(N)=O)NC(=O)[C@H](CC(C)C)NC(=O)[C@H](CCC(=O)O)NC(=O)[C@H](CO)NC1=O)C(C)C (Ac-VCSELC[Ala(indol-2-yl)]-NH2; disulfide 2-6)	272
CC(=O)N[C@H](C(=O)N[C@H]1Cc2cnnn2CC[C@@H](C(=O)N[C@@H](Cc2c[nH]c3ccccc23)C(N)=O)NC(=O)[C@H](CC(C)C)NC(=O)[C@H](CCC(=O)O)NC(=O)[C@H](CO)NC1=O)C(C)C	44.4
CC(=O)N[C@H](C(=O)N[C@H]1CCn2nncc2C[C@@H](C(=O)N[C@@H](Cc2c[nH]c3ccccc23)C(N)=O)NC(=O)[C@H](CC(C)C)NC(=O)[C@H](CCC(=O)O)NC(=O)[C@H](CO)NC1=O)C(C)C	37
CC(=O)N[C@H](C(=O)N[C@H]1Cn2cc(nn2)C[C@@H](C(=O)N[C@@H](Cc2c[nH]c3ccccc23)C(N)=O)NC(=O)[C@H](CC(C)C)NC(=O)[C@H](CCC(=O)O)NC(=O)[C@H](CO)NC1=O)C(C)C (Ac-V[Dap(N3)]SEL[Pra]W-NH2; triazole 2-6)	22.8
CC(=O)N[C@H](C(=O)N[C@H]1Cc2cn(nn2)CC[C@@H](C(=O)N[C@@H](Cc2c[nH]c3ccccc23)C(N)=O)NC(=O)[C@H](CC(C)C)NC(=O)[C@H](CCC(=O)O)NC(=O)[C@H](CO)NC1=O)C(C)C (Ac-V[Pra]SEL[Aha]W-NH2; triazole 2-6)	30.2
